Results on 74 molecules are retold here after PubChem BioAssay AID1996.

Values after ≈ are worked out from the molar mass of the structure shown.

The conditions of this data set: buffer; pH 7.4; 200.0 µM.
A word on the solubility (kinetic): it is the concentration staying in solution when a stock, usually in DMSO, is diluted into the medium. In the case of `COc1ccccc1NS(=O)(=O)c1cc(C(=O)N2CCCCCC2)ccc1C`, the solubility (kinetic) stood at 9.6 µg/mL (≈ 23.8 µM).

For the molecule `Cc1ccc(S(=O)(=O)N2CCN(C(C)C(=O)NCC(C)c3ccccc3)CC2)cc1` (centres undefined), the kinetic solubility is 58.2 µg/mL (≈ 135 µM).

With `COc1ccccc1-n1c(-c2ccccc2)nc2ccccc2c1=O`, the kinetic solubility was more than 49.3 µg/mL.

Regarding `O=c1oc(-c2ccc(Br)cc2)nc2ccccc12`, the solubility (kinetic) is less than 0.6 µg/mL.

In turn, `Cc1ccc(-c2nc(=S)c3c(n2Cc2cccnc2)CC(C)(C)OC3)cc1` gave a solubility (kinetic) of more than 56.6 µg/mL.

Regarding `Cc1ccccc1C(=O)Nc1nc2c(C)csc2c(=O)s1`, the solubility (kinetic) is less than 0.3 µg/mL.

In turn, `C[C@H](NC(=O)c1ccco1)C(=O)NC1CCCCCC1` showed a kinetic solubility of more than 41.8 µg/mL.

`COc1cc(N)ccc1NC(=O)c1cc2ccccc2o1` yielded a solubility (kinetic) of more than 42.3 µg/mL.

`CCCCn1c(CCC(=O)O)nc2cc(S(=O)(=O)N3CCCC3)ccc21` showed a kinetic solubility of more than 56.9 µg/mL.

Take `COC(=O)c1[nH]c2cc(OC)ccc2c1NC(=O)c1c(F)cccc1F`: the solubility (kinetic) was found to be 4.9 µg/mL (≈ 13.6 µM).

`S=C(NCc1ccco1)NC1CCCc2ccccc21` (centres undefined) displayed a kinetic solubility of 36.4 µg/mL (≈ 127 µM).

As to `C/C(=N\O)c1cc(Cl)cc(Cl)c1O`, the solubility (kinetic) was 30.5 µg/mL (≈ 139 µM).

Molecule `O=C(CCc1ccc(S(=O)(=O)N2CCOCC2)cc1)Nc1ccc(F)c(F)c1F` yielded a solubility (kinetic) of 44.6 µg/mL (≈ 104 µM).

Molecule `Nc1c(C(=O)Nc2ccccc2F)sc2nc(-c3cccnc3)ccc12` showed a solubility (kinetic) of 4.2 µg/mL (≈ 11.5 µM).

On to `O=C(NNC(=O)c1ccncc1)c1ccccc1`, for which the kinetic solubility is more than 36.2 µg/mL.

With `OC1CCN(CC(O)C(F)(F)F)CC1` (centres undefined), the solubility (kinetic) is more than 32 µg/mL.

Molecule `Cc1cccc(OCC(=O)OCC(=O)N2CCN(C(=O)c3ccco3)CC2)c1C` displayed a kinetic solubility of more than 60.1 µg/mL.

`Nc1ccc(-c2nc3ncccc3o2)c(O)c1` showed a kinetic solubility of 3.1 µg/mL (≈ 13.6 µM).

With `O=[N+]([O-])c1ccc(-c2nc(C(Cl)Cl)c3ccccc3n2)cc1`, the solubility (kinetic) came out at 0.5 µg/mL (≈ 1.5 µM). This solubility kinetic lies about 6.2-fold lower than the previous one.

In turn, `COc1cc(CN2CCN(Cc3cccc(OC)c3OC)CC2)cc(OC)c1` gave a kinetic solubility of 47.8 µg/mL (≈ 124 µM).

Consider `CN=c1sc(C(=O)Nc2ccccc2)c(C)n1C`, for which the solubility (kinetic) was 35.3 µg/mL (≈ 135 µM).

On to `COc1cc(S(=O)(=O)NCc2ccc3c(c2)OCO3)c(OC)cc1C`, for which the kinetic solubility came out at 53.9 µg/mL (≈ 148 µM). Against the preceding molecule, the solubility kinetic is about 1.5-fold higher.

`CN(C)Cc1ccccc1CCc1ccccc1.Cl` had a kinetic solubility of 23.9 µg/mL.

For the molecule `CCCOc1ccc(Cc2c(O)nc(SC)[nH]c2=O)cc1`, the solubility (kinetic) worked out at 44.6 µg/mL (≈ 146 µM).

Regarding `O=C1CCCN1CCCNS(=O)(=O)c1ccc(F)cc1F`, the kinetic solubility is more than 47.8 µg/mL.

For `CCOc1ccccc1NC(=O)Nc1ccccn1`, the kinetic solubility is less than 0.2 µg/mL.

Molecule `COc1ccc(OC)c(NC(=O)Nc2cnccn2)c1` displayed a solubility (kinetic) of 3.3 µg/mL (≈ 12 µM).

The molecule `COc1ccccc1NC(=O)C1CC(C)OC1=O` (centres undefined) registered a solubility (kinetic) of more than 37.4 µg/mL.

Regarding `COc1cc(N)c(Cl)cc1C(=O)OCC(=O)N1c2ccccc2NC(=O)C1(C)C`, the solubility (kinetic) amounted to 5.5 µg/mL (≈ 13.2 µM).

Regarding `COc1cccc2cc(C(=O)NCc3ccc(C)cc3)c(=N)oc12`, the solubility (kinetic) is 3 µg/mL (≈ 9.31 µM).

On to `Cc1cccc(C)c1NC(=O)C1CSC2(C)CCC(=O)N12` (centres undefined), for which the solubility (kinetic) is more than 45.7 µg/mL.

With `CCCCOc1ccc(C(=O)NCC(=O)NC2CCCCC2)cc1`, the solubility (kinetic) is 4.7 µg/mL (≈ 14.1 µM).

For `CCCCn1c(=O)cc(C)n(-c2ccccc2)c1=O`, the kinetic solubility came to 22.8 µg/mL (≈ 88.3 µM). This solubility kinetic is about 4.9-fold higher than that of the molecule before.

Consider `Cc1ccc(NC(=O)COc2cccc3c2OC(C)(C)C3)c(O)c1`, for which the solubility (kinetic) was determined as 6.8 µg/mL (≈ 20.8 µM).

Take `CC1=C(C#N)C2(O)C(=O)c3ccccc3C2(O)N1` (centres undefined): the kinetic solubility was more than 36.3 µg/mL.

In the case of `O=C(Oc1c(-c2ccccc2)c(=O)n2c3c(cccc13)CC2)c1ccco1`, the solubility (kinetic) was 32.6 µg/mL (≈ 91.2 µM).

In turn, `O=C(NCc1nc(-c2ccc(C(F)(F)F)cc2)no1)Nc1ccc(F)cc1F` had a kinetic solubility of 1.1 µg/mL (≈ 2.76 µM). Compared with the last molecule, the solubility kinetic is about 30-fold lower.

`N/C(=N\OC(=O)c1cccc(C(F)(F)F)c1)c1cnccn1` yielded a solubility (kinetic) of 2.4 µg/mL (≈ 7.74 µM).

`CCN1CCCC1CNC(=S)Nc1ccc(C(C)=O)cc1` (centres undefined) gave a kinetic solubility of more than 45.8 µg/mL.

For `Cc1cc(C(=O)COC(=O)c2ccc(NC(=O)CC#N)cc2)c(C)n1-c1ccc(OC(F)F)cc1`, the kinetic solubility is 1.7 µg/mL (≈ 3.53 µM).

On to `COCC1CCN(C(=O)c2oc3c(F)cccc3c2C)C1` (centres undefined), for which the solubility (kinetic) is 37.3 µg/mL (≈ 128 µM).

On to `O=C(Cn1c(CO)nc2ccccc21)NC1CCCCCC1`, for which the solubility (kinetic) is more than 45.2 µg/mL.

In the case of `CC(C)CC(=O)N1CCN(Cc2ccc(Cl)cc2)CC1`, the solubility (kinetic) is 28.4 µg/mL (≈ 96.3 µM).

As to `CSc1nc2ccc(NC(=O)c3ccc(=O)[nH]c3)cc2s1`, the solubility (kinetic) turned out to be 16.1 µg/mL (≈ 50.7 µM). Against the preceding molecule, the solubility kinetic is about 1.8-fold lower.

With `COC(=O)c1cc(S(=O)(=O)N2CCCC(C)C2)c[nH]1` (centres undefined), the kinetic solubility is more than 43 µg/mL.

With `Cc1ccccc1NC(=O)CCN1C(=O)c2ccccc2C1=O`, the kinetic solubility came out at 15.3 µg/mL (≈ 49.6 µM).

Take `Cc1ccc2c(c1)sc(=NC(=O)C1CC1)n2C`: the kinetic solubility was determined as 15.5 µg/mL (≈ 62.9 µM).

`COC(=O)/C=C1/SC(=NC(=O)c2ccc(F)cc2)NC1=O` had a kinetic solubility of more than 46.2 µg/mL.

Turning to `O=C(CCCc1c[nH]c2ccccc12)NCc1ccccc1F`, the kinetic solubility is 34.5 µg/mL (≈ 111 µM).

As for `Cc1ccc(C)c(CNC(=O)Nc2ccccc2)c1`, the kinetic solubility amounted to 0.8 µg/mL (≈ 3.15 µM).

In the case of `CS(=O)(=O)c1cccc(S(=O)(=O)N2CCCCCC2)c1`, the kinetic solubility is more than 47.6 µg/mL.

On to `CN1CCN(c2nc(-c3ccc(Cl)cc3)cc(=O)[nH]2)CC1`, for which the solubility (kinetic) worked out at 39.8 µg/mL (≈ 131 µM).

Consider `CCC(=O)Nc1ccc(S(=O)(=O)N2CCc3ccccc32)cc1`, for which the solubility (kinetic) turned out to be 41.2 µg/mL (≈ 125 µM).

As to `Cc1ccc(NC(=O)/C(=C\c2ccccc2)NC(=O)c2ccco2)cc1`, the kinetic solubility came out at 4.7 µg/mL (≈ 13.6 µM).

For the molecule `O=C(O)c1ccccc1N(Cc1ccccc1)C(=O)COc1ccccc1`, the kinetic solubility is more than 54.2 µg/mL.

Molecule `COc1ccc2[nH]c3c(c2c1)CCNC3C.Cl` (centres undefined) came in with a kinetic solubility of 30.1 µg/mL.

For `O=C(O)/C=C/C(=O)N1CCc2ccccc21`, the solubility (kinetic) was more than 32.6 µg/mL.

In turn, `Cc1ccc(CN2C(=O)C(=O)N(CC(N)=O)C2=O)cc1` gave a solubility (kinetic) of more than 41.3 µg/mL.

`CSc1ncccc1C(=O)Nc1ccncc1` registered a kinetic solubility of 34.6 µg/mL (≈ 141 µM).

As for `O=C(COC(=O)COc1ccccc1)NCc1ccco1`, the kinetic solubility was more than 43.4 µg/mL.

In turn, `Cc1nc2ccccc2c(=O)n1-c1cccc(C(F)(F)F)c1` registered a kinetic solubility of 43.6 µg/mL (≈ 143 µM).

Take `O=C(Nc1ccc(COc2ccccc2)cc1)Nc1cccc(C(=O)O)c1`: the solubility (kinetic) stood at 12.1 µg/mL (≈ 33.4 µM).

As to `O=C(NCCCCCCNC(=O)c1ccccc1O)c1ccccc1O`, the kinetic solubility came to 1.2 µg/mL (≈ 3.37 µM).

Regarding `Cc1cc2c(cc1S(=O)(=O)N(C)c1ccccc1)NC(=O)CO2`, the solubility (kinetic) stood at 3.3 µg/mL (≈ 9.93 µM).

For the molecule `C=CCNC(=O)c1cccc(NS(=O)(=O)c2ccc(Cl)cc2)c1`, the kinetic solubility was found to be 49.9 µg/mL (≈ 142 µM).

Take `COc1cc(OC)cc(C(=O)NC2CC3CCC(C2)N3C)c1` (centres undefined): the kinetic solubility was determined as 38.4 µg/mL (≈ 126 µM).

`NS(=O)(=O)c1ccc(CNC(=O)c2cccnc2Cl)cc1`: the solubility (kinetic) came to 38.3 µg/mL (≈ 118 µM).

Take `Cc1ccccc1CN(C)C1CCN(C)CC1`: the kinetic solubility turned out to be 31.7 µg/mL (≈ 136 µM).

For `S=c1[nH]c2cc3ccccc3cc2[nH]1`, the kinetic solubility amounted to 27.9 µg/mL (≈ 139 µM).

With `COC(=O)c1c(C)[nH]c(C(=O)/C=C/c2ccc(C)cc2)c1C`, the solubility (kinetic) was found to be 1.7 µg/mL (≈ 5.72 µM).

As for `CN(CC(=O)NCC1CCCCC1)S(=O)(=O)c1ccc(F)cc1`, the solubility (kinetic) amounted to 16.2 µg/mL (≈ 47.3 µM). This solubility kinetic lies about 9.5-fold higher than the previous one.

`CC(=O)c1cccc(NC(=O)NC2CCCCCCC2)c1`: the solubility (kinetic) came to 2.5 µg/mL (≈ 8.67 µM).

In turn, `COC(=O)c1ccc(C(=O)Nc2ccc(C(C)C)cc2N)cc1` yielded a kinetic solubility of 2.5 µg/mL (≈ 8 µM).

For `O=C(COC(=O)c1cc(S(=O)(=O)N2CCOCC2)ccc1F)Nc1cc([N+](=O)[O-])ccc1F`, the solubility (kinetic) came out at 7.4 µg/mL (≈ 15.2 µM).
